Experimental data reported in ChEMBL document CHEMBL4808202, “Evaluation of artemisinin derivative artemether as a fluconazole potentiator through inhibition of Pdr5” (2021).
Activity calls are given as the source filed them. No cut-off for these calls is given here.

Key:
[1] = test system: Candida tropicalis; experiment: Antifungal activity against Candida tropicalis NL001 assessed as fungal growth at 100 uM measured after 24 hrs by absorbance based analysis relative to vehicle-treated control; type: functional
[2] = test system: Saccharomyces cerevisiae; experiment: Antifungal activity against Saccharomyces cerevisiae harboring snq2 delta mutant assessed as fungal growth at 1600 uM measured after 24 hrs by absorbance based analysis relative to control; type: functional
[3] = test system: Candida albicans; experiment: Antifungal activity against Candida albicans SC5314 assessed as inhibition of fungal growth by measuring decrease in OD600 at 100 microM measured after 24 hrs by absorbance based analysis; type: functional
[4] = test system: Candida albicans; experiment: Potentiation of fluconazole-induced antifungal activity against Candida albicans SC5314 assessed as inhibition of fungal filamentation by measuring reduction in fungal hyphae growth in YEPD containing 10% serum medium at 100 uM incubated for 1 hr in presence of fluconazole by microscopic analysis; type: functional, organism-based
[5] = test system: Saccharomyces cerevisiae; experiment: Antifungal activity against Saccharomyces cerevisiae harboring pdr15 delta mutant assessed as fungal growth at 1600 uM measured after 24 hrs by absorbance based analysis relative to control; type: functional
[6] = test system: Saccharomyces cerevisiae; experiment: Antifungal activity against Saccharomyces cerevisiae BY4742 assessed as inhibition of fungal growth at 100 uM measured after 24 hrs by absorbance based analysis relative to vehicle-treated control; type: functional
[7] = test system: Saccharomyces cerevisiae; experiment: Antifungal activity against Saccharomyces cerevisiae harboring pdr12 delta mutant assessed as fungal growth at 1600 uM measured after 24 hrs by absorbance based analysis relative to control; type: functional
[8] = test system: Saccharomyces cerevisiae; experiment: Antifungal activity against Saccharomyces cerevisiae harboring yol075c delta mutant assessed as fungal growth at 1600 uM measured after 24 hrs by absorbance based analysis relative to control; type: functional
[9] = test system: Candida albicans; experiment: Antifungal activity against Candida albicans SC5314 assessed as inhibition of fungal filamentation in Spider medium at 100 uM incubated for 1 hr by microscopic analysis; type: functional, organism-based
[10] = test system: [Candida] auris; experiment: Potentiation of fluconazole-induced antifungal activity against Candida auris NL002 assessed as fungal growth at 100 uM measured after 24 hrs in presence of fluconazole by absorbance based analysis relative to vehicle-treated control; type: functional, Candidozyma auris
[11] = test system: Candida parapsilosis; experiment: Potentiation of fluconazole-induced antifungal activity against Candida parapsilosis NL001 assessed as fungal growth at 100 uM measured after 24 hrs in presence of fluconazole by absorbance based analysis relative to vehicle-treated control; type: functional
[12] = test system: Saccharomyces cerevisiae; experiment: Antifungal activity against Saccharomyces cerevisiae YNL013 harboring pdr5 delta mutant assessed as inhibition of fungal growth at 100 uM measured after 24 hrs by absorbance based analysis; type: functional, organism-based
[13] = test system: Saccharomyces cerevisiae; experiment: Antifungal activity against Saccharomyces cerevisiae BY4742 assessed as fungal growth at 1600 uM measured after 24 hrs by absorbance based analysis relative to control; type: functional
[14] = test system: Candida albicans; experiment: Potentiation of fluconazole-induced antifungal activity against Candida albicans SC5314 assessed as fungal growth at 100 microM measured after 24 hrs in presence of fluconazole by absorbance based analysis relative to fluconazole-treated control; type: functional
[15] = test system: Candida albicans; experiment: Potentiation of fluconazole-induced antifungal activity against Candida albicans SC5314 assessed as inhibition of fungal filamentation by measuring reduction in fungal hyphae growth in Spider medium at 100 uM incubated for 1 hr in presence of fluconazole by microscopic analysis; type: functional, organism-based
[16] = test system: Candida albicans; experiment: Antifungal activity against fluconazole-resistant Candida albicans CNL012 assessed as fungal growth at 100 uM measured after 24 hrs by absorbance based analysis relative to vehicle-treated control; type: functional
[17] = test system: Candida tropicalis; experiment: Potentiation of fluconazole-induced antifungal activity against Candida tropicalis NL001 assessed as fungal growth at 100 uM measured after 24 hrs in presence of fluconazole by absorbance based analysis relative to vehicle treated control; type: functional
[18] = test system: Candida albicans; experiment: Potentiation of micafungin-induced antifungal activity against Candida albicans SC5314 assessed as fungal growth at 100 microM measured after 24 hrs in presence of micafungin by absorbance based analysis relative to micafungin-treated control; type: functional
[19] = test system: Saccharomyces cerevisiae; experiment: Potentiation of fluconazole-induced antifungal activity against Saccharomyces cerevisiae BY4741 assessed as fungal growth at 100 uM measured after 24 hrs by absorbance based analysis relative to fluconazole-treated control; type: functional
[20] = test system: Saccharomyces cerevisiae; experiment: Antifungal activity against Saccharomyces cerevisiae harboring aus1 delta mutant assessed as fungal growth at 1600 uM measured after 24 hrs by absorbance based analysis relative to control; type: functional
[21] = test system: Saccharomyces cerevisiae; experiment: Inhibition of PDR5 in Saccharomyces cerevisiae BY4742 assessed as inhibition of R6G efflux incubated for 4 hrs followed by R6G addition and measured after 1.5 hrs by fluorescence based analysis; details: dose 100-400 µM, time 5.5 hrs
[22] = test system: Candida albicans; experiment: Potentiation of fluconazole-induced antifungal activity against Candida albicans CNL002 harboring cdr1 delta mutant assessed as inhibition of fungal growth at 100 uM measured after 24 hrs by absorbance based analysis; type: functional, organism-based
[23] = test system: Saccharomyces cerevisiae; experiment: Antifungal activity against Saccharomyces cerevisiae harboring ynr070w delta mutant assessed as fungal growth at 1600 uM measured after 24 hrs by absorbance based analysis relative to control; type: functional
[24] = test system: Saccharomyces cerevisiae; experiment: Potentiation of fluconazole-induced antifungal activity against Saccharomyces cerevisiae BY4742 assessed as inhibition of fungal growth at 100 uM measured after 24 hrs in presence of fluconazole by absorbance based analysis relative to fluconazole-treated control; type: functional
[25] = test system: [Candida] auris; experiment: Potentiation of fluconazole-induced antifungal activity against Candida auris NL002 assessed as fungal growth at 100 uM measured after 24 hrs in presence of fluconazole by absorbance based analysis relative to fluconazole-treated control; type: functional, Candidozyma auris
[26] = test system: Candida albicans; experiment: Recovery of fluconazole susceptibility against fluconazole-resistant Candida albicans CNL012 assessed as inhibition of fungal growth at 100 uM measured every 15 mins for 24 hrs by absorbance based analysis; type: functional, organism-based
[27] = test system: Saccharomyces cerevisiae; experiment: Antifungal activity against Saccharomyces cerevisiae harboring pdr5 delta mutant assessed as fungal growth at 1600 uM measured after 24 hrs by absorbance based analysis relative to control; type: functional
[28] = test system: Candida parapsilosis; experiment: Antifungal activity against Candida parapsilosis NL001 assessed as fungal growth at 100 uM measured after 24 hrs by absorbance based analysis relative to vehicle-treated control; type: functional
[29] = test system: Saccharomyces cerevisiae; experiment: Antifungal activity against Saccharomyces cerevisiae harboring yor1 delta mutant assessed as fungal growth at 1600 uM measured after 24 hrs by absorbance based analysis relative to control; type: functional
[30] = test system: Saccharomyces cerevisiae; experiment: Antifungal activity against Saccharomyces cerevisiae harboring adp1 delta mutant assessed as fungal growth at 1600 uM measured after 24 hrs by absorbance based analysis relative to control; type: functional
[31] = test system: Candida parapsilosis; experiment: Potentiation of fluconazole-induced antifungal activity against Candida parapsilosis NL001 assessed as fungal growth at 100 uM measured after 24 hrs in presence of fluconazole by absorbance based analysis relative to fluconazole-treated control; type: functional
[32] = test system: Candida albicans; experiment: Recovery of fluconazole susceptibility against fluconazole-resistant Candida albicans CNL011 assessed as inhibition of fungal growth at 100 uM measured every 15 mins for 24 hrs by absorbance based analysis; type: functional, organism-based
[33] = test system: Candida albicans; experiment: Antifungal activity against Candida albicans SC5314 assessed as inhibition of fungal filamentation in YEPD containing 10% serum medium at 100 uM incubated for 1 hr by microscopic analysis; type: functional, organism-based
[34] = test system: Saccharomyces cerevisiae; experiment: Antifungal activity against Saccharomyces cerevisiae harboring pdr10 delta mutant assessed as fungal growth at 1600 uM measured after 24 hrs by absorbance based analysis relative to control; type: functional
[35] = test system: Saccharomyces cerevisiae; experiment: Antifungal activity against Saccharomyces cerevisiae harboring ycf1 delta mutant assessed as fungal growth at 1600 uM measured after 24 hrs by absorbance based analysis relative to control; type: functional
[36] = test system: Saccharomyces cerevisiae; experiment: Antifungal activity against Saccharomyces cerevisiae harboring pdr11 delta mutant assessed as fungal growth at 1600 uM measured after 24 hrs by absorbance based analysis relative to control; type: functional
[37] = test system: Cryptococcus neoformans; experiment: Potentiation of fluconazole-induced antifungal activity against Cryptococcus neoformans H99 assessed as inhibition of fungal growth at 0.2 uM measured every 15 mins for 24 hrs in presence of fluconazole by absorbance based analysis; type: functional, organism-based
[38] = test system: Candida albicans; experiment: Potentiation of amphotericin B-induced antifungal activity against Candida albicans SC5314 assessed as fungal growth at 100 microM measured after 24 hrs in presence of amphotericin B by absorbance based analysis relative to amphotericin B-treated control; type: functional
[39] = test system: Candida albicans; experiment: Antifungal activity against fluconazole-resistant Candida albicans CNL011 assessed as fungal growth at 100 uM measured after 24 hrs by absorbance based analysis relative to vehicle-treated control; type: functional
[40] = test system: Saccharomyces cerevisiae; experiment: Inhibition of PDR5 in Saccharomyces cerevisiae BY4742 assessed as inhibition of R6G efflux at 400 uM incubated for 4 hrs followed by R6G addition and measured after 1.5 hrs by fluorescence based analysis; details: time 5.5 hrs
[41] = test system: Saccharomyces cerevisiae; experiment: Antifungal activity against Saccharomyces cerevisiae harboring ybt1 delta mutant assessed as fungal growth at 1600 uM measured after 24 hrs by absorbance based analysis relative to control; type: functional
[42] = test system: [Candida] auris; experiment: Antifungal activity against Candida auris NL002 assessed as fungal growth at 100 uM measured after 24 hrs by absorbance based analysis relative to vehicle-treated control; type: functional, Candidozyma auris
[43] = test system: Saccharomyces cerevisiae BY4741; experiment: Inhibition of PDR5 in Saccharomyces cerevisiae BY4741 assessed as intracellular accumulation of fluconazole at 400 uM measured per gm of cells after 4 hrs by HPLC analysis (reference value: 11.3 nmol); type: cell-based
[44] = test system: Saccharomyces cerevisiae; experiment: Antifungal activity against Saccharomyces cerevisiae harboring nft1 delta mutant assessed as fungal growth at 1600 uM measured after 24 hrs by absorbance based analysis relative to control; type: functional
[45] = test system: Saccharomyces cerevisiae; experiment: Potentiation of fluconazole-induced antifungal activity against Saccharomyces cerevisiae YNL033 overexpressing PDR5 assessed as fungal growth at 100 uM measured after 24 hrs by absorbance based analysis relative to fluconazole-treated control; type: functional
[46] = test system: Saccharomyces cerevisiae; experiment: Increase in intracellular fluconazole accumulation in Saccharomyces cerevisiae YNL032 harboring pdr5 deletion mutant at 400 uM measured after 4 hrs by HPLC analysis; type: functional, cell-based
[47] = test system: Candida tropicalis; experiment: Potentiation of fluconazole-induced antifungal activity against Candida tropicalis NL001 assessed as fungal growth at 100 uM measured after 24 hrs in presence of fluconazole by absorbance based analysis relative to fluconazole-treated control; type: functional
[48] = test system: Saccharomyces cerevisiae; experiment: Antifungal activity against Saccharomyces cerevisiae harboring vmr1 delta mutant assessed as fungal growth at 1600 uM measured after 24 hrs by absorbance based analysis relative to control; type: functional
[49] = test system: Cryptococcus neoformans; experiment: Antifungal activity against Cryptococcus neoformans H99 assessed as inhibition of fungal growth at 0.2 uM measured every 15 mins for 24 hrs by absorbance based analysis; type: functional, organism-based
[50] = test system: Saccharomyces cerevisiae; experiment: Antifungal activity against Saccharomyces cerevisiae harboring bpt1 delta mutant assessed as fungal growth at 1600 uM measured after 24 hrs by absorbance based analysis relative to control; type: functional

## CO[C@H]1O[C@@H]2O[C@@]3(C)CC[C@H]4[C@H](C)CC[C@@H]([C@H]1C)[C@@]24OO3 [ARTEMETHER]
[1]
  Activity: 88.1%
[2]
  Activity: 67.5%
[3]
  inhibition at 100 µM: 10.1%
[4]
  Activity: Active
[5]
  Activity: 70.2%
[6]
  inhibition at 100 µM: 45.8%
[7]
  Activity: 71.2%
[8]
  Activity: 67.9%
[9]
  Activity: inactive
[10]
  Activity: 44.7%
[11]
  Activity: 41.5%
[12]
  Activity: Active
[13]
  Activity: 71.9%
[14]
  Activity: 52.6%
[15]
  Activity: Active
[16]
  Activity: 91.6%
[17]
  Activity: 83.3%
[18]
  Activity: 95.2%
[19]
  Activity: 76.5%
[20]
  Activity: 71%
[21]
  inhibition: Dose-Dependent Effect
[22]
  Activity: Active
[23]
  Activity: 72.7%
[24]
  inhibition at 100 µM: 68.8%
[25]
  Activity: 48.4%
[26]
  Activity: Active
[27]
  Activity: 29.8%
[28]
  Activity: 68.6%
[29]
  Activity: 75.4%
[30]
  Activity: 68%
[31]
  Activity: 41.5%
[32]
  Activity: Active
[33]
  Activity: inactive
[34]
  Activity: 67.1%
[35]
  Activity: 60.3%
[36]
  Activity: 77.8%
[37]
  Activity: Active
[38]
  Activity: 96.1%
[39]
  Activity: 86.9%
[40]
  inhibition: Active
[41]
  Activity: 69.2%
[42]
  Activity: 57.6%
[43]
  Activity: 13.1 nmol
[44]
  Activity: 72.3%
[45]
  Activity: 70.9%
[46]
  Activity: Active
[47]
  Activity: 81.9%
[48]
  Activity: 65.6%
[49]
  Activity: Active
[50]
  Activity: 71.8%

## C[C@@H]1CC[C@H]2[C@@H](C)C(=O)O[C@@H]3O[C@@]4(C)CC[C@@H]1[C@]32OO4 [ARTEMISININ]
[3]
  inhibition at 100 µM: 4.9%
[4]
  Activity: Active
[9]
  Activity: inactive
[14]
  Activity: 22.6%
[15]
  Activity: Active
[18]
  Activity: 97.7%
[33]
  Activity: inactive
[38]
  Activity: 96.1%

## C[C@H]1[C@H](OC(=O)CCC(=O)O)O[C@@H]2O[C@@]3(C)CC[C@H]4[C@H](C)CC[C@@H]1[C@@]24OO3 [ARTESUNATE]
[3]
  Activity: inactive
[4]
  Activity: Active
[9]
  Activity: inactive
[14]
  Activity: 42.9%
[15]
  Activity: Active
[18]
  Activity: 96.9%
[33]
  Activity: inactive
